# Measured values reported in BindingDB's records for doi:10.7270/Q2251GJ9 (The Scripps Research Institute Molecular Screening Center, 2007).
# pEC50: −log10 of the molar value.
# Molecular target: Sphingosine 1-phosphate receptor 1 (Homo sapiens, UniProt P21453)
# Experiment: direct activation of human S1P1 – cell-based, agonist mode, 60K MLSMR set, dose response (AID 468)
# Conditions: not given
# Sphingosine 1-phosphate receptor 1, sequence (P21453 whole entry): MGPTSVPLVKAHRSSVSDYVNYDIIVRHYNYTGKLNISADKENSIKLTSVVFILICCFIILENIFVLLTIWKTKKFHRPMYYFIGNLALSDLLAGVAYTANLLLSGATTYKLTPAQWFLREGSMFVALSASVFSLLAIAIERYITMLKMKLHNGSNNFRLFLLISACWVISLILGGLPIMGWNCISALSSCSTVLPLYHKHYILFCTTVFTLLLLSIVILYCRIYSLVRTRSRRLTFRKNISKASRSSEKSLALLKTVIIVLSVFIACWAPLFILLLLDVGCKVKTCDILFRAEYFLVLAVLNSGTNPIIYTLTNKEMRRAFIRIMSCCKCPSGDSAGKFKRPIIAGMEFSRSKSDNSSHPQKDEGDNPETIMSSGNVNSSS
row,SMILES,pEC50
1,"O=S1(=O)Nc2c(ccc3cccnc23)-c2ccccc21 [5H-quinolino[8,7-c][1,2]benzothiazine 6,6-dioxide]",5.40
2,Cn1c(SCC(=O)Nc2ccc(N3CCOCC3)c(Cl)c2)nnc1-c1ccccc1 [MLS000089171],5.65
3,CCCS(=O)(=O)c1nnnn1-c1cccc(OC)c1 [1-(3-methoxyphenyl)-5-(propylsulfonyl)-1H-tetrazole],5.55
4,"Cc1oc2cc(O)cc(O)c2c(=O)c1-c1ccc2c(c1)OCCCO2 [3-(3,4-dihydro-2H-1,5-benzodioxepin-7-yl)-2-methyl-5,7-bis(oxidanyl)chromen-4-one]",5.34
5,CCOc1ccc(-c2nc(CSCC(=O)N3CCN(c4cccc(OC)c4)CC3)c(C)o2)cc1 [1-[4-(3-methoxyphenyl)piperazino]-2-[(5-methyl-2-p-phenetyl-oxazol-4-yl)methylthio]ethanone],5.04
6,"CC(=O)Nc1cc(OC(C)=O)c2nonc2c1OC(C)=O [Acetic acid 7-acetoxy-5-acetylamino-benzo[1,2,5]oxadiazol-4-yl ester]",5.12
7,Fc1ccc2[nH]c3c(N4CCN(c5ccccc5)CC4)ncnc3c2c1,< 5.52
8,Cn1ncnc2c(=O)n(C)c(=O)nc1-2,5.85
9,Cc1cc(C(=O)Nc2sc(C)c(-c3ccc(F)cc3)c2C(N)=O)no1 [MLS000043467],5.17
10,CCSc1nnc(NC(=O)C(Cc2ccccc2)n2cccc2)s1 (centres undefined) [MLS000119034],< 4.52
11,COc1ccc(CN=O)cc1COc1ccc(NC(C)=O)cc1 [MLS000111933],< 4.02
12,"c1ccc(C(Cc2nc(-c3cccnc3)no2)c2ccccc2)cc1 [5-(2,2-diphenylethyl)-3-(3-pyridinyl)-1,2,4-oxadiazole]",5.55
13,CCCn1c(NC(=O)c2cccc(S(=O)(=O)N3CCCC3)c2)nc2ccccc21 [MLS000057540],5.05
14,"C=CCN1/C(=N/c2cccnc2)SCC1(O)c1ccc(C)cc1 (centres undefined) [(2E)-3-allyl-4-(4-methylphenyl)-2-(pyridin-3-ylimino)-1,3-thiazolidin-4-ol]",5.21
15,"Cc1nc(NC(C)c2ccccc2)c2oc3ccccc3c2n1 (centres undefined) [(2-methylbenzofuro[3,2-d]pyrimidin-4-yl)-(1-phenylethyl)amine]",5.16
16,"CCOc1ccc(-c2nnc(-c3cccnc3)o2)cc1OCC [2-(3,4-diethoxyphenyl)-5-(3-pyridinyl)-1,3,4-oxadiazole]",5.48
17,"Cc1nnc2ccc(Oc3ccc(-c4ccccc4)cc3)nn12 [3-methyl-6-(4-phenylphenoxy)-[1,2,4]triazolo[4,3-b]pyridazine]",5.29
18,"Cc1ccc(-c2nc(CSCC(=O)N3CCN(c4ccccn4)CC3)c(C)o2)cc1 [2-[[5-methyl-2-(4-methylphenyl)-1,3-oxazol-4-yl]methylsulfanyl]-1-(4-pyridin-2-ylpiperazin-1-yl)ethanone]",5.26
19,"O=C(NCc1ccccc1)N1CCN(c2ccc(Cl)c(Cl)c2)CC1 [4-(3,4-dichlorophenyl)-N-(phenylmethyl)-1-piperazinecarboxamide]",5.15
20,COc1ccccc1OCCCCCc1c(C)n[nH]c1C [SMR000103101],5.01

row,SMILES,pEC50
1,CN(C)c1oc(-c2ccc(OCc3ccccc3)cc2)nc1C#N [2-(4-benzoxyphenyl)-5-(dimethylamino)oxazole-4-carbonitrile],5.49
2,CCc1ccc(NC(=O)c2cc(-c3ccco3)on2)cc1 [MLS000087211],5.16
3,"CCOc1ccc(-c2nc(-c3ccncc3)no2)cc1OCC [4-[5-(3,4-diethoxyphenyl)-1,2,4-oxadiazol-3-yl]pyridine]",6.68
4,"O=C(CSc1nnc(Cn2nnc3ccccc32)o1)N(Cc1ccc(F)cc1)c1ccccc1 [2-(5-Benzotriazol-1-ylmethyl-[1,3,4]oxadiazol-2-ylsulfanyl)-N-(4-fluoro-benzyl)-N-phenyl-acetamide]",5.29
5,"O=S(=O)(c1cccs1)N1CCN(CC(O)COc2cc(Cl)ccc2Cl)CC1 (centres undefined) [1-(2,5-dichlorophenoxy)-3-(4-thiophen-2-ylsulfonyl-1-piperazinyl)-2-propanol]",5.38
6,"c1ccc(-c2ccc(-c3nc(-c4cccnc4)no3)cc2)cc1 [5-(4-phenylphenyl)-3-(3-pyridinyl)-1,2,4-oxadiazole]",5.63
7,"COc1cccc(N2CCN(c3ncnc4c3[nH]c3ccccc34)CC2C)c1 (centres undefined) [4-[4-(3-methoxyphenyl)-3-methyl-1-piperazinyl]-5H-pyrimido[5,4-b]indole]",5.43
8,"CCC(C)c1ccc2oc(-c3ccc(NC(=O)c4nnc[nH]4)cc3)nc2c1 (centres undefined) [N-[4-(5-sec-butyl-1,3-benzoxazol-2-yl)phenyl]-1H-1,2,4-triazole-3-carboxamide]",< 5.00
9,"COCCn1c(C)cc(C(=O)CSc2nc3ccccc3o2)c1C [2-(1,3-benzoxazol-2-ylsulfanyl)-1-[1-(2-methoxyethyl)-2,5-dimethyl-pyrrol-3-yl]ethanone]",< 4.02
10,"CCOC(=O)c1ccc2c(c1)C(=O)N(C1CCCCC1)C2=O [2-cyclohexyl-1,3-diketo-isoindoline-5-carboxylic acid ethyl ester]",< 4.02
11,CC(C)Cc1cc(C(=O)Nc2sc3c(c2C#N)CCCC3)no1 [MLS000116410],< 5.00
12,"Clc1ccc(OCc2nc(-c3ccncc3)no2)c(Br)c1 [5-[(2-bromanyl-4-chloranyl-phenoxy)methyl]-3-pyridin-4-yl-1,2,4-oxadiazole]",5.41
13,O=C(Nc1c(F)cc(F)cc1Br)c1cc(-c2ccc(O)cc2)on1 [MLS000116264],5.63
14,"CCN(C1CCCCC1)S(=O)(=O)c1ccc(S(=O)(=O)NCc2ccncc2)cc1 [4-N-cyclohexyl-4-N-ethyl-1-N-(pyridin-4-ylmethyl)benzene-1,4-disulfonamide]",5.26
15,"COC(=O)c1cc(CSc2nnc(-c3ccccc3)c(-c3ccccc3)n2)oc1C [5-[[(5,6-diphenyl-1,2,4-triazin-3-yl)thio]methyl]-2-methyl-3-furancarboxylic acid methyl ester]",5.76
16,"COc1ccc(-c2n[nH]cc2-c2ccc3c(c2)OCCO3)c(O)c1 [(6E)-6-[4-(2,3-dihydro-1,4-benzodioxin-6-yl)-1,2-dihydropyrazol-3-ylidene]-3-methoxycyclohexa-2,4-dien-1-one]",6.01
17,Cc1noc(C)c1S(=O)(=O)N(CC(=O)Nc1ccc2c(c1)OCO2)c1ccc(C(C)C)cc1 [MLS000117405],< 4.02
18,"Cc1cccc(-c2nc(CSCC(=O)N3CCN(Cc4ccc5c(c4)OCO5)CC3)c(C)o2)c1 [1-(1,3-benzodioxol-5-ylmethyl)-4-[({[5-methyl-2-(3-methylphenyl)-1,3-oxazol-4-yl]methyl}thio)acetyl]piperazine]",5.29
19,"COc1ccc(-c2noc(-c3cccc(OC)c3OC)n2)cc1OC [5-(2,3-dimethoxyphenyl)-3-(3,4-dimethoxyphenyl)-1,2,4-oxadiazole]",5.84
20,"CCOc1ccc(Cc2nc(-c3nonc3N)no2)cc1OCC [4-[5-(3,4-diethoxybenzyl)-1,2,4-oxadiazol-3-yl]-1,2,5-oxadiazol-3-amine]",5.04

# Same assay, conditions: inactive by the depositor's call
row,SMILES,pEC50
1,Cc1csc(NC(=O)c2nc(-c3ccccc3)n(-c3ccccc3)n2)n1 [MLS000058347],4.99
2,O=C(c1ccco1)N1CCN(c2ncnc3c2[nH]c2ccc(Br)cc23)CC1 [MLS000078404],4.86
3,CCCc1cc2c(=O)c(-c3ccccn3)coc2cc1OC [7-methoxy-6-propyl-3-(2-pyridinyl)-1-benzopyran-4-one],4.29
4,"CC1CCc2nc(NC(=O)CSc3nc4ccccc4o3)sc2C1 (centres undefined) [2-(1,3-benzoxazol-2-ylsulfanyl)-N-(6-methyl-4,5,6,7-tetrahydro-1,3-benzothiazol-2-yl)acetamide]",4.24
5,"CC1CCCC(C)N1C(=O)CN1CCN(c2nc(-c3ccc(F)cc3)cs2)CC1 (centres undefined) [1-(2,6-Dimethyl-piperidin-1-yl)-2-{4-[4-(4-fluoro-phenyl)-thiazol-2-yl]-piperazin-1-yl}-ethanone]",4.90
6,COc1ccc(-c2cc(C(=O)NC3CCCC3)no2)cc1OC [MLS000087117],4.80
7,COc1cccc(-c2csc(N3CCN(CC(=O)Nc4ccc5c(c4)OCO5)CC3)n2)c1 [MLS000070935],4.77
8,"O=C(C1CCC1)N1CCc2cc(S(=O)(=O)Nc3ccc4c(c3)OCCO4)ccc21 [1-(cyclobutanecarbonyl)-N-(2,3-dihydro-1,4-benzodioxin-6-yl)-2,3-dihydroindole-5-sulfonamide]",4.41
9,CC(C)[C@H](NC(=O)OC(C)(C)C)c1nnc(SCC(=O)Nc2ccc(Br)cc2)o1 [MLS000040800],4.83
10,"O=C(NCc1ccco1)C1CCN(C(=O)c2cc3sccc3n2Cc2ccc(Cl)cc2)CC1 [1-[4-(4-chlorobenzyl)thieno[3,2-b]pyrrole-5-carbonyl]-N-(2-furfuryl)isonipecotamide]",4.98
11,CCN(CC)S(=O)(=O)c1cc(C(=O)Nc2ccncc2)ccc1Cl [4-chloranyl-3-(diethylsulfamoyl)-N-pyridin-4-yl-benzamide],4.28
12,O=S1(=O)C=C(Sc2nnc(-c3ccccc3)o2)c2ccccc21,4.69
13,CC(=O)c1sc(NC(=O)C2(F)C(F)(F)C(F)(F)C(F)(F)C(F)(F)C2(F)F)nc1C [MLS000040071],4.52
14,"CCOc1nc(-c2ccccc2)ccc1-c1noc(-c2ccco2)n1 [2-Ethoxy-3-(5-furan-2-yl-[1,2,4]oxadiazol-3-yl)-6-phenyl-pyridine]",4.77
15,"CC1CCN(S(=O)(=O)c2ccc3c(c2)oc(=O)n3CC(=O)NCc2ccc3c(c2)OCO3)CC1 [2-[2-keto-6-(4-methylpiperidino)sulfonyl-1,3-benzoxazol-3-yl]-N-piperonyl-acetamide]",4.91
16,"CN1c2ccccc2C(C)(C)C12C=Cc1cc(O)ccc1O2 (centres undefined) [1',3',3'-trimethyl-6-spiro[1-benzopyran-2,2'-indole]ol]",4.88
17,CC1=C(/C=C/C(C)=C/C=C/C(C)=C/C(=O)O)C(C)(C)CCC1 [ALL-TRANS-RETINOIC ACID],4.60
18,O=C(C1CCN(S(=O)(=O)c2cccc3cccnc23)CC1)N1CCN(c2ccc(Cl)cc2)CC1 [MLS000116819],4.76
19,CCOC(=O)N1CCC(NC(=O)C2CCCN(Cc3nc(-c4cccc(Cl)c4)oc3C)C2)CC1 (centres undefined) [4-[[1-[[2-(3-chlorophenyl)-5-methyl-oxazol-4-yl]methyl]nipecotoyl]amino]piperidine-1-carboxylic acid ethyl ester],4.74
